This is an account of results in paper PMC6100582 (Molecules : A Journal of Synthetic Chemistry and Natural …, 2018).

Series [1] has as its system Mycobacterium tuberculosis H37Ra. Kind of series: Antimycobacterial susceptibility assay (MIC determination). Type of series: cell-based. The conditions noted are these: 168 h, 7 days, 37 °C, alamarBlue. As to the method:
At log phase growth, a culture sample (10 mL) was centrifuged at 15,000 rpm/20 min using a bench-top centrifuge (MPW-65R, MPW Med Instruments, Poland). Following removal of the supernatant, the pellet was washed in fresh Middlebrook 7H9GC broth and re-suspended in fresh, ODAC-supplemented MB (10 mL). The turbidity was adjusted to match McFarland standard No. 1 (3 × 10^8 CFU) with MB broth. A further 1:20 dilution of the culture was then performed in MB broth. The antimicrobial susceptibility of M. tuberculosis was investigated in a 96-well plate format. In these experiments, sterile deionised water (300 µl) was added to all outer-perimeter wells of the plates to minimize evaporation of the medium in the test wells during incubation. Each evaluated compound (100 µL) was incubated with M. tuberculosis (100 µl). Dilutions of each compound were prepared in duplicate. For all synthesized compounds, final concentrations ranged from 1000 μg/mL to 8 μg/mL. All compounds were dissolved in DMSO, and subsequent dilutions were made in supplemented MB. […] Following incubation, 10% of alamarBlue (Difco, Lawrence, KS, USA) was mixed into each well, and readings at 570 nm and 600 nm were taken, initially for background subtraction and subsequently after 24 h reincubation. […] For non-interfering compounds, a blue colour in the well was interpreted as the absence of growth, and a pink colour was scored as growth.
(Resazurin is reduced to fluorescent resorufin, in cell work by metabolically active cells.)

In series [2] the test system is Mycobacterium marinum CAMP 5644. Described as above. In kind it is cell-based. The settings on record: Mycobacterium marinum, CAMP5644, 504 h. The procedure:
The broth dilution micro-method in Middlebrook 7H9 medium (Difco, Lawrence, KS, USA) supplemented with ADC Enrichment (Becton, Dickinson and Comp.) was used to determine MIC as previously described. […] Bacterial inocula were prepared by transferring colonies from culture to sterile water. The cell density was adjusted to 0.5 McFarland units using a densitometer (Densi-La-Meter, LIAP, Riga, Latvia). The final inoculum was made by 1:1000 dilution of the suspension with sterile water. Drug-free controls, sterility controls and controls consisted of medium and DMSO (Sigma-Aldrich, St. Louis, MO, USA) alone were included. […] Ciprofloxacin (CIP), rifampicin (RIF) and isoniazid (INH) (Sigma-Aldrich, St. Louis, MO, USA) were used as the standards.

In series [3] the test system is NCI-H460 (lung carcinoma). Nature of the series: Antiproliferative screening (cytostatic activity). The settings on record: Homo sapiens, NCI-H460, 72 h, read-out: IC50 NCI-H460. In kind it is cell-based. The procedure:
(§1) All human tumor cell lines were acquired from the American Type Culture Collection (ATCC, Manassas, VA, USA), except for the DND-41 cell line which was purchased from the Deutsche Sammlung von Mikroorganismen und Zellkulturen (DSMZ Leibniz-Institut, Braunschweig, Germany) and the Hap1 cell line which was purchased from Horizon Discovery (Waterbeach, UK). […] All media were supplemented with 10% FBS (HyClone, GE Healthcare Life Sciences, USA). […] After overnight incubation, cells were treated with test compounds at four different concentrations ranging from 100 to 0.8 µM. […] Images were taken every 3 h, with one field image per well under 10× magnification. All compounds were tested with duplicate data points and averaged.

In series [4] the test system is K-562 (chronic myeloid leukemia). Kind of series: Antiproliferative screening (cytostatic activity). In kind it is cell-based. The settings on record: Homo sapiens, K562, 72 h, read-out: IC50 K-562. As to the method: as §1
For series [5], the system named is Capan-1 (pancreatic adenocarcinoma). Kind of series: Antiproliferative screening (cytostatic activity). The conditions noted are these: Homo sapiens, CAPAN-1, 72 h, read-out: IC50 Capan-1. In kind it is cell-based. The procedure: as §1
The test system of series [6] is MM.1S (multiple myeloma). Nature of the series: Antiproliferative screening (cytostatic activity). Type of series: cell-based. The conditions noted are these: Homo sapiens, MM1.S, 72 h, read-out: IC50 MM.1S. The procedure: as §1
The test system of series [7] is Z-138 (non-Hodgkin lymphoma). Kind of series: Antiproliferative screening (cytostatic activity). The conditions noted are these: Homo sapiens, Z-138, 72 h, read-out: IC50 Z-138. In kind it is cell-based. The procedure:
as §1

For series [8], the system named is HCT-116 (colorectal carcinoma). Kind of series: Antiproliferative screening (cytostatic activity). The settings on record: Homo sapiens, HCT-116, 72 h, read-out: IC50 HCT-116. Type of series: cell-based. As to the method:
as §1

The subject of series [9] is DND-41 (acute lymphoblastic leukemia). Kind of series: Antiproliferative screening (cytostatic activity). In kind it is cell-based, human. The settings on record: Homo sapiens, DND41, 72 h, 72 h, read-out: IC50 DND-41. The procedure: (§2) Cytostatic activity was evaluated in vitro on nine different types of human tumor cell lines: Capan-1, Hap1, HCT-116, and NCI-H460, as well as hematological tumors such as DND-41, HL-60, K-562, MM.1S and Z-138 as described previously. All human tumor cell lines were acquired from the American Type Culture Collection (ATCC, Manassas, VA, USA), except for the DND-41 cell line which was purchased from the Deutsche Sammlung von Mikroorganismen und Zellkulturen (DSMZ Leibniz-Institut, Braunschweig, Germany) and the Hap1 cell line which was purchased from Horizon Discovery (Waterbeach, UK). Capan-1, Hap1, HL-60, K-562, Z-138, MM.1S and DND-41 were cultured in Iscove′s Modified Dulbecco′s Medium (IMDM, Gibco Life Technologies, Gaithersburg, MD, USA), HCT-116 were grown in McCoy′s 5A Medium (Gibco Life Technologies) and NCI-H460 were cultured in RPMI (Gibco Life Technologies). All media were supplemented with 10% FBS (HyClone, GE Healthcare Life Sciences, USA). Adherent cell lines HCT-116, Hap1, NCI-H460, and Capan-1 cells were seeded at a density between 400 and 1250 cells per well, in 384-well, black-walled, clear-bottomed tissue culture plates (Greiner Bio-One, Kremsmünster, Germany). After overnight incubation, cells were treated with test compounds at four different concentrations ranging from 100 to 0.8 µM. Suspension cell lines HL-60, K-562, Z-138, MM.1S, and DND-41 were seeded at densities ranging from 3000 to 10,000 cells per well in 384-well, black-walled, clear-bottomed tissue culture plates containing test compounds at the same four concentrations. The plates were incubated and monitored at 37 °C for 72 h in an IncuCyte (Essen BioScience Inc., Ann Arbor, MI, USA) for real-time imaging. Images were taken every 3 h, with one field image per well under 10× magnification. All compounds were tested with duplicate data points and averaged. […]

Series [10] deals with Hap1 (chronic myeloid leukemia). Kind of series: Antiproliferative screening (cytostatic activity). Type of series: cell-based. The settings on record: Homo sapiens, HAP1, 72 h, read-out: IC50 Hap1. The procedure:
as §2

In series [11] the test system is HL-60 (acute myeloid leukemia). Nature of the series: Antiproliferative screening (cytostatic activity). Type of series: cell-based. The settings on record: Homo sapiens, HL-60, 72 h, read-out: IC50 HL-60. The procedure:
as §2

The mark [12] stands for this setting: DXT and STS values in nM (footnote).

Structures are written as SMILES. ≈ marks a conversion by molar mass, not a printed value. Where two headings read alike, the source gives them in different places.

For `COc1cc(NC(C)CCCNC(=O)CCC(=O)Nc2cccc(F)c2)c2ncccc2c1` (centres unmarked) [Compound 5a, N-(3-Fluorophenyl)-N′-{4-[(6-methoxyquinolin-8-yl)amino]pentyl}butanediamide], the melting point – broadly, the temperature of the solid-liquid transition – was 140 to 142 °C.
The same measure, in the same setting: with `COc1cc(NC(C)CCCNC(=O)CCC(=O)Nc2ccc(F)cc2)c2ncccc2c1` (centres unmarked) [Compound 5b, N-(4-Fluorophenyl)-N′-{4-[(6-methoxyquinolin-8-yl)amino]pentyl}butanediamide] the figure was 118 to 120 °C.
The same measure, in the same setting: with `COc1cc(NC(C)CCCNC(=O)CCC(=O)Nc2cccc(C(F)(F)F)c2)c2ncccc2c1` (centres unmarked) [Compound 5e, N′-{4-[(6-Methoxyquinolin-8-yl)amino]pentyl}-N-[3-(trifluoromethyl)phenyl]butanediamide] the figure was 146 to 149 °C; with `COc1cc(NC(C)CCCNC(=O)CCC(=O)Nc2ccc(Cl)cc2)c2ncccc2c1` (centres unmarked) [Compound 5d, N-(4-Chlorophenyl)-N′-{4-[(6-methoxyquinolin-8-yl)amino]pentyl}butanediamide], 152 to 153 °C.
`O=C(O)c1cn(C2CC2)c2cc(N3CCNCC3)c(F)cc2c1=O` [CIP, ciprofloxacin, reference compound]: the MIC (as a rule, the least concentration at which growth counts as inhibited) in series [1] came out at 16 µg/mL (≈ 48.3 µM); in [2], 0.3 µg/mL (≈ 0.905 µM).
Consider `CO[C@H]1/C=C/O[C@@]2(C)Oc3c(C)c(O)c4c(O)c(c(/C=N/N5CCN(C)CC5)c(O)c4c3C2=O)NC(=O)/C(C)=C\C=C\[C@H](C)[C@H](O)[C@@H](C)[C@@H](O)[C@@H](C)[C@H](OC(C)=O)[C@@H]1C` [RIF, rifampicin, reference compound], for which, in [2], the MIC was 2.2 µg/mL (≈ 2.67 µM).
In the case of `COc1cc([C@@H]2c3cc4c(cc3[C@@H](O[C@@H]3O[C@@H]5CO[C@@H](C)O[C@H]5[C@H](O)[C@H]3O)[C@H]3COC(=O)[C@H]23)OCO4)cc(OC)c1O` [EPEG, etoposide, reference compound], the IC50 (commonly the concentration needed to halve the response being measured) amounted to 90 nM in series [3] (IncuCyte imaging); 10 nM in series [4] (IncuCyte imaging); 150 nM in series [5] (IncuCyte imaging); 970 nM in series [6] (IncuCyte imaging); 20 nM in series [7] (IncuCyte imaging); 1350 nM in series [8] (IncuCyte imaging). For the same molecule, the IC50 was determined as 30 nM in series [9] (IncuCyte imaging), 40 nM in [10] (IncuCyte imaging) and 30 nM in [11] (IncuCyte imaging).
Turning to `NNC(=O)c1ccncc1` [INH, isoniazid, reference compound], the MIC came to 5 µg/mL (≈ 36.5 µM) in series [1] and 64 µg/mL (≈ 467 µM) in [2].
`COc1cc(NC(C)CCCNC(=O)CCC(=O)Nc2cccc(Cl)c2)c2ncccc2c1` (centres unmarked) [Compound 5c, N-(3-Chlorophenyl)-N′-{4-[(6-methoxyquinolin-8-yl)amino]pentyl}butanediamide] displayed a melting point of 156 to 158 °C.
Turning to `CN[C@@H]1C[C@H]2O[C@@](C)([C@@H]1OC)n1c3ccccc3c3c4c(c5c6ccccc6n2c5c31)C(=O)NC4` [STS, staurosporine, reference compound], the IC50 in [9] (setting [12]) was found to be 6.96 nM; in series [10] (setting [12]) it was 3.56 nM; in series [11] (setting [12]) it was 13.1 nM.
On to `CC(=O)O[C@@]12CO[C@@H]1C[C@H](O)[C@@]1(C)C(=O)[C@H](O)C3=C(C)[C@@H](OC(=O)[C@H](O)[C@@H](NC(=O)OC(C)(C)C)c4ccccc4)C[C@@](O)([C@@H](OC(=O)c4ccccc4)[C@H]21)C3(C)C` [DXT, docetaxel, reference compound], for which the IC50 in series [3] (setting [12]) stood at 1.3 nM; in [4] (setting [12]) it was 1.22 nM; in [5] (setting [12]), 0.75 nM; in series [6] (setting [12]), 3.38 nM; in series [7] (setting [12]), 5.42 nM; in [8] (setting [12]), 7.66 nM. The values for the IC50 in [9] (setting [12]), in series [10] (setting [12]) and in series [11] (setting [12]) were 0.94 nM, 1.17 nM and 1.24 nM, respectively.
For the molecule `COc1cc(NC(C)CCCNC(=O)CCC(=O)Nc2ccc(C(F)(F)F)cc2)c2ncccc2c1` (centres unmarked) [Compound 5f, N′-{4-[(6-Methoxyquinolin-8-yl)amino]pentyl}-N-[4-(trifluoromethyl)phenyl]butanediamide], the melting point lay in the range of 163 to 165 °C.
